Measurements as given in publication PMC8778818, “Synthesis, Structural Characterization and Anticancer Activity of New 5-Trifluoromethyl-2-thioxo-thiazolo[4,5-d]pyrimidine Derivatives” (Pharmaceuticals, 2022).
Values belong to the compound of their own block, whether it stands above or below them.

Experiments:
C32 = test: MTT cell viability assay, C32; format: cell-based, human; conditions: for IC50: Homo sapiens, C32, MTT, 72 h, mean ± SD; for cytotoxic effect (in words): C32, 72 h
Method: (§1) Twelve compounds (2a-e, 3a-d and 4a-c) at a concentration range of 50–5000 μM were tested for their antiproliferative potential against four human cancer cell lines (A375—melanotic melanoma, C32—amelanotic melanoma, DU145—prostate cancer androgen-independent, MCF-7/WT—breast adenocarcinoma) and two normal cell lines: Chinese Hamster Ovary (CHO-K1) and immortalized human keratinocytes from histologically normal skin (HaCaT).
(§2) To determine the antiproliferative activity of newly synthesized compounds, the following cell lines were used: human melanotic melanoma cell line (A375), human amelanotic melanoma cell line (C32), human breast adenocarcinoma cell line (MCF-7/WT), human prostate cancer androgen-independent (DU145) and two normal cell lines: hamster ovarian (CHO-K1) and immortalized human keratinocytes from histologically normal skin (HaCaT). The cells were obtained from the cell line bank of the Department of Molecular and Cellular Biology, Wroclaw Medical University. A375, C32, MCF-7/WT, DU145 and HaCaT cells were grown in a monolayer cultured in Dulbecco’s Modified Eagle’s Medium (DMEM, Sigma-Aldrich, Poznań, Poland), supplemented with 10% of fetal bovine serum (FBS, Gibco, Paisley, UK) and 1% of antibiotics (penicillin/streptomycin, Sigma-Aldrich) and CHO-K1 were grown in HAM’s F-12 medium (Sigma-Aldrich), supplemented with 10% fetal bovine serum (FBS, Gibco) and 1% of antibiotics (penicillin/streptomycin, Sigma-Aldrich). Cell lines were cultured in the polystyrene flasks 25 or 75 cm^2 (Thermo Fisher Scientific, Waltham, MA, USA), which were stored in 37 °C and 5% CO2 in a humidified 95% atmosphere (SteriCult, Thermo Scientific, Alab). The cell medium was exchanged twice a week. The exponentially growing cells were used throughout the experiments. The cells were rinsed with phosphate-buffered saline (PBS, Sigma-Aldrich) and trypsinized by Trypsin-EDTA 0.25% solution (Sigma-Aldrich).
(§3) The influence of the compounds was performed in a monolayer culture on cancer and normal cells. Compounds were initially dissolved in DMSO; further dilutions of the compound were performed in Dulbecco’s Modified Eagle’s Medium supplemented with 10% FBS. Compounds were tested in a 50–5000 µM concentration range. In the in vitro experiments, the concentrations of DMSO in the final solution of the compounds were used 0.05%; 0.1%; 0.5%; 1%, respectively.
(§4) Cell viability was determined using the MTT colorimetric assay. All cell lines were seeded into 96-well plates to a density of 3 × 10^4 cells/well. After 24 h, the culture supernatants were removed and appropriate dilutions of compounds in the culture medium (200 µL/well) were added to the cells’ monolayer cultures and incubated for an additional 72 h. After 72 h of exposition to the compounds and the removal of the culture medium, cell viability was determined by reducing the yellow dye 3-(4,5-dimethyl-2-thiazol)-2,5-diphenyl-2H-tetrazolium bromide (MTT assay, Sigma Saint Louis, MO, USA; In Vitro Toxicology Assay) to a blue formazan product. The absorbance of the resulting solutions in three duplicate experiments was measured at the wavelength of 560 nm in a microplate reader (EnSpire, Perkin Elmer, Kraków, Poland). MTT assay is a colorimetric method that estimates the rate of metabolism in viable cells. Absorbance is directly proportional to the number of viable cells. All the experiments were performed three times and the mean absorbance values were calculated. The methodology for the evaluation of the growth of human cancer and normal cells was described previously. The cell viability in each group was expressed as a percentage of control (untreated) cells.

HaCaT = test: MTT cell viability assay, HaCaT; format: cell-based, human; conditions: 72 h; for IC50: Homo sapiens, HaCaT normal cells, MTT, mean ± SD; for cytotoxic effect (in words): HaCaT human keratinocytes
Method: as §1, §2, §3, §4

CHO-K1 = test: MTT cell viability assay, CHO-K1; format: cell-based, Chinese Hamster; conditions: CHO-K1 normal cells, 72 h; for IC50: Cricetulus griseus, MTT, mean ± SD
Method: as §1, §2, §3, §4

A375 = test: MTT cell viability assay, A375; format: cell-based, human; conditions: A375, MTT, mean ± SD
Method: as §1, §2, §3, §4

MCF-7/WT = test: MTT cell viability assay, MCF-7/WT; format: cell-based; conditions: Homo sapiens, MCF7, 72 h, mean ± SD
Method: as §1, §2, §3, §4

[1] = tested on: A375, C32, DU145, MCF-7/WT, CHO-K1 and HaCaT cell lines; test: MTT cell viability assay, all six cell lines; format: cell-based; conditions: mean over the six cell lines; read-out: Mean A: the mean IC50 for the given compound
Method: as §1, §2, §3, §4

DU145 = test: MTT cell viability assay, DU145; format: cell-based, human; conditions: for IC50: Homo sapiens, DU-145, DU145, MTT, 72 h, mean ± SD; for cytotoxic effect (in words): DU145, 72 h
Method: as §1, §2, §3, §4

HOP-92 = tested on: HOP-92; parameters: method as in PMID 579132; conditions: NS Cell Lung C. HOP-92, 10^−5 M one dose; cited from earlier work
[2] = tested on: 60 human cancer cell lines; parameters: method as in PMID 579132; conditions: cited from earlier work; for Mean Growth %: 10^−5 M one dose, mean over the panel, analogs I–VII; for N2: number of cell lines giving positive log TGI (≤−4.01): of N = 59 tested cell lines; for N2: number of cell lines giving positive log TGI (≤−4.01) / log GI50 Range / log LC50 Range / log TGI Range: analogs IV and V; for log GI50 Range / log LC50 Range / log TGI Range: values > −4.00 excluded
UO-31 = tested on: UO-31; parameters: method as in PMID 579132; conditions: Renal C. UO-31, 10^−5 M one dose; cited from earlier work
RPMI-8226 = tested on: RPMI-8226; parameters: method as in PMID 579132; conditions: Leukemia, 10^−5 M one dose; cited from earlier work
UACC-62 = tested on: UACC-62; parameters: method as in PMID 579132; conditions: Melanoma UACC-62, 10^−5 M one dose; cited from earlier work
SF-295 = tested on: SF-295; parameters: method as in PMID 579132; conditions: CNS C. SF-295, 10^−5 M one dose; cited from earlier work
CAKI-1 = tested on: CAKI-1; parameters: method as in PMID 579132; conditions: Renal C. CAKI-1, 10^−5 M one dose; cited from earlier work

Structure (SMILES): O=c1[nH]c(-c2cccnc2)nc2c1sc(=S)n2-c1ccccc1 [III]
Growth % of the most sensitive cell line (HOP-92): 73.81%
Mean Growth % [2]: 105.59%

Structure (SMILES): O=c1[nH]c(-c2ccc(F)cc2)nc2c1sc(=S)n2-c1ccccc1 [II]
Growth % of the most sensitive cell line (HOP-92): 55.97%
Mean Growth % [2]: 106.11%

Structure (SMILES): S=c1sc2c(Cl)nc(-c3cccnc3)nc2n1-c1ccccc1 [IV]
Growth % of the most sensitive cell line (UO-31): −85.59%
Mean Growth % [2]: 20.78%
log TGI Δ ([2]; logarithmic difference between most sensible cell line and MG_MID, analog IV): 1.12
N2: number of cell lines giving positive log TGI (≤−4.01) [2]: 7
log GI50 Range [2]: −5.28 to −6.26 log M
log LC50 Range [2]: −5.17 to −5.26 log M
log TGI Range [2]: −4.52 to −5.51 log M

Structure (SMILES): O=c1[nH]c(-c2ccc(Cl)cc2)nc2c1sc(=S)n2-c1ccccc1 [I]
Growth % of the most sensitive cell line (RPMI-8226): 29.76%
Mean Growth % [2]: 80.85%

Structure (SMILES): Fc1ccc(CNc2nc(-c3ccc(F)cc3)nc3c2sc(=S)n3-c2ccccc2)cc1 [VII]
Mean Growth % [2]: 89.50%
Growth % of the most sensitive cell line (UACC-62): 54.52%

Structure (SMILES): Fc1ccc(CNc2nc(-c3ccc(Cl)cc3)nc3c2sc(=S)n3-c2ccccc2)cc1 [VI]
Growth % of the most sensitive cell line (SF-295): −43.11%
Mean Growth % [2]: 48.46%

Structure (SMILES): Fc1ccc(-c2nc(Cl)c3sc(=S)n(-c4ccccc4)c3n2)cc1 [V]
Growth % of the most sensitive cell line (CAKI-1): −88.95%
N2: number of cell lines giving positive log TGI (≤−4.01) [2]: 49
log GI50 Range [2]: −4.23 to −8.00 log M
log LC50 Range [2]: −4.07 to −5.42 log M
log TGI Range [2]: −4.10 to −5.90 log M

Continued, in another order:

IC50 (A375; Homo sapiens, A-375, 72 h): 429 ± 17.5 µM
IC50 (MCF-7/WT): 519 ± 21.1 µM
IC50 (DU145): 251 ± 10.2 µM
Structure (SMILES): CCn1c(=S)sc2c(=O)[nH]c(C(F)(F)F)nc21 [Compound 2a, 3-ethyl-2-thioxo-5-(trifluoromethyl)-2,3-dihydro[1, 3]thiazolo[4,5-d]pyrimidin-7(6H)-one]
IC50 (C32): 434 ± 17.7 µM
IC50 (HaCaT): 615 ± 25 µM
IC50 (CHO-K1): 521 ± 21.2 µM
IC50 [1]: 462 µM

melting point: 211 to 212 °C
IC50 (A375; Homo sapiens, A-375, 72 h): 450 ± 17.6 µM
IC50 (MCF-7/WT): 420 ± 16.5 µM
IC50 (DU145): 163 ± 6.4 µM
Structure (SMILES): O=c1[nH]c(C(F)(F)F)nc2c1sc(=S)n2-c1ccccc1F [Compound 2c, 3-(2-fluoropheny)l-2-thioxo-5-(trifluoromethyl)-2,3-dihydro[1, 3]thiazolo[4,5-d]pyrimidin-7(6H)-one]
IC50 (C32): 364 ± 14.3 µM
IC50 (HaCaT): 543 ± 21.3 µM
IC50 (CHO-K1): 525 ± 20.6 µM
IC50 [1]: 411 µM

IC50 (A375; Homo sapiens, A-375, 72 h): 531 ± 22.4 µM
IC50 (MCF-7/WT): 519 ± 21.9 µM
IC50 (DU145): 121 ± 5.1 µM
Structure (SMILES): O=c1[nH]c(C(F)(F)F)nc2c1sc(=S)n2-c1cccc(F)c1 [Compound 2d, 3-(3-fluorophenyl)-2-thioxo-5-(trifluoromethyl)-2,3-dihydro[1, 3]thiazolo[4,5-d]pyrimidin-7(6H)-one]
IC50 (C32): 384 ± 16.2 µM
IC50 (HaCaT): 725 ± 30.6 µM
IC50 (CHO-K1): 553 ± 23.3 µM
IC50 [1]: 472 µM

melting point: 259 to 260 °C
IC50 (A375; Homo sapiens, A-375, 72 h): 379 ± 13.5 µM
IC50 (MCF-7/WT): 434 ± 15.5 µM
IC50 (DU145): 139 ± 5 µM
Structure (SMILES): O=c1[nH]c(C(F)(F)F)nc2c1sc(=S)n2-c1ccc(F)cc1 [Compound 2e, 3-(4-fluoropheny)l-2-thioxo-5-(trifluoromethyl)-2,3-dihydro[1, 3]thiazolo[4,5-d]pyrimidin-7(6H)-one]
IC50 (C32): 355 ± 12.6 µM
IC50 (HaCaT): 234 ± 8.3 µM
IC50 (CHO-K1): 483 ± 17.2 µM
IC50 [1]: 337 µM

melting point: 66 to 67 °C
IC50 (A375; Homo sapiens, A-375, 72 h): 142 ± 3.6 µM
IC50 (MCF-7/WT): 356 ± 9.1 µM
IC50 (DU145): 72.5 ± 1.9 µM
Structure (SMILES): CCn1c(=S)sc2c(Cl)nc(C(F)(F)F)nc21 [Compound 3a, 7-chloro-3-ethyl-5-(trifluoromethyl)[1, 3]thiazolo[4,5-d]pyrimidine-2(3H)-thione]
cytotoxic effect (in words) (C32): strong cytotoxic effect
IC50 (C32): 89.3 ± 2.3 µM
cytotoxic effect (in words) (HaCaT): strong cytotoxic effect
IC50 (HaCaT): 88.3 ± 2.3 µM
IC50 (CHO-K1): 122 ± 3.1 µM
IC50 [1]: 145 µM
cytotoxic effect (in words) (DU145): strong cytotoxic effect

IC50 (A375; Homo sapiens, A-375, 72 h): 108 ± 2.6 µM
IC50 (MCF-7/WT): 248 ± 6 µM
IC50 (DU145): 168 ± 4 µM
Structure (SMILES): Fc1ccccc1-n1c(=S)sc2c(Cl)nc(C(F)(F)F)nc21 [Compound 3c, 7-chloro-(2-fluoropheny)-5-(trifluoromethyl)[1, 3]thiazolo[4,5-d]pyrimidine-2(3H)-thione]
cytotoxic effect (in words) (C32): strong cytotoxic effect
IC50 (C32): 86.4 ± 2.1 µM
cytotoxic effect (in words) (HaCaT): strong cytotoxic effect
IC50 (HaCaT): 37.8 ± 0.9 µM
cytotoxic effect (in words) (CHO-K1): strong cytotoxic effect
IC50 (CHO-K1): 93.8 ± 2.3 µM
IC50 [1]: 124 µM

IC50 (A375; 72 h): 104 ± 3.4 µM
IC50 (A375; Homo sapiens, A-375, 72 h): 103 µM
IC50 (MCF-7/WT): 540 ± 17.9 µM
IC50 (DU145): 126 ± 4.2 µM
Structure (SMILES): Fc1cccc(-n2c(=S)sc3c(Cl)nc(C(F)(F)F)nc32)c1 [Compound 3d, 7-chloro-(3-fluoropheny)-5-(trifluoromethyl)[1, 3]thiazolo[4,5-d]pyrimidine-2(3H)-thione]
cytotoxic effect (in words) (C32): strong cytotoxic effect
IC50 (C32): 87.4 ± 2.9 µM
cytotoxic effect (in words) (HaCaT): non-toxic
IC50 (HaCaT): 360 ± 11.9 µM
cytotoxic effect (in words) (CHO-K1): non-toxic
IC50 (CHO-K1): 512 ± 17 µM
IC50 [1]: 288 µM

melting point: 197 to 198 °C
IC50 (A375; Homo sapiens, A-375, 72 h): 114 ± 3.5 µM
IC50 (MCF-7/WT): 144 ± 4.4 µM
IC50 (DU145): 96.9 ± 3 µM
Structure (SMILES): CNc1nc(C(F)(F)F)nc2c1sc(=S)n2-c1ccccc1 [Compound 4a, 7-(methylamino)-3-phenyl-5-(trifluoromethyl)[1, 3]thiazolo[4,5-d]pyrimidine-2(3H)-thione]
IC50 (C32): 132 ± 4.1 µM
IC50 (HaCaT): 748 ± 22.9 µM
cytotoxic effect (in words) (CHO-K1): high cytotoxicity
IC50 (CHO-K1): 48.5 ± 1.5 µM
IC50 [1]: 214 µM
cytotoxic effect (in words) (DU145): high cytotoxicity
